Test results as given in patent US20080210174A1, “Increasing the Protein Concentration of Animal Organisms” (BASF AKTIENGESELLSCHAFT, priority 2004, published 2008).

Assays:
[1] = target: T1, human cytosol malate enzyme (Homo sapiens, UniProt P48163); conditions: cited from earlier work
T1 sequence (P48163 1-572): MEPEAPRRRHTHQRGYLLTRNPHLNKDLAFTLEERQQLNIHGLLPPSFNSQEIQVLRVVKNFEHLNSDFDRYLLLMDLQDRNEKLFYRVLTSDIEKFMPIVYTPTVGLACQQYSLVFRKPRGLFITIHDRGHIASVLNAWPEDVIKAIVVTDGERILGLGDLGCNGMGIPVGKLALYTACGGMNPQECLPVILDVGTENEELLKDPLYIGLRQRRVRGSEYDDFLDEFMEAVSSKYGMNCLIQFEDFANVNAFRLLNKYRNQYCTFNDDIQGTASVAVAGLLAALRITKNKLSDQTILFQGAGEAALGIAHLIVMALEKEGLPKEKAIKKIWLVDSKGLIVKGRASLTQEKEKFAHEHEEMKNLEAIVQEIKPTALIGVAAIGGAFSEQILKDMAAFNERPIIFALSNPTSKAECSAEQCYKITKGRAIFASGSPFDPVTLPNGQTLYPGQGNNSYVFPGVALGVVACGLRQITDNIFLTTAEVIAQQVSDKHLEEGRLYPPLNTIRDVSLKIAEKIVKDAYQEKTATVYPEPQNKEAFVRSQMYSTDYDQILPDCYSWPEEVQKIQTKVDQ

[2] = target: human mitochondrial malate enzyme (Homo sapiens, UniProt P23368); conditions: cited from earlier work
Sequence of human mitochondrial malate enzyme (P23368 19-584): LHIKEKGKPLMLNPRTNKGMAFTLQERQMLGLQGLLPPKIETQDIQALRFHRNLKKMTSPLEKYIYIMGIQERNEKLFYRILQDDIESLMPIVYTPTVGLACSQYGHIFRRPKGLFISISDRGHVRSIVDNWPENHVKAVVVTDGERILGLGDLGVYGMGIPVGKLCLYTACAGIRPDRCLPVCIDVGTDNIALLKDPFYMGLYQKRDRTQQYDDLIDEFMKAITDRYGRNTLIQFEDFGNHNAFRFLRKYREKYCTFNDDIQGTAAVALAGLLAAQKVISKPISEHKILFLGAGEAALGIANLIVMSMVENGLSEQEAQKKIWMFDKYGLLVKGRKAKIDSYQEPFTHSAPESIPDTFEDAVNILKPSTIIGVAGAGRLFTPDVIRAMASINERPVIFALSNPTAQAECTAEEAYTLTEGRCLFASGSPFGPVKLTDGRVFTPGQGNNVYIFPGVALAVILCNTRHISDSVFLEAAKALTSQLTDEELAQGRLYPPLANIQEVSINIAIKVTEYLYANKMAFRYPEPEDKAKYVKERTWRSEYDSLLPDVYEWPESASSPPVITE

malate enzyme = malate enzyme from Mucor circinelloides; cited from earlier work
malate dehydrogenase = malate dehydrogenase from Mucor circinelloides; cited from earlier work
[3] = tested on: conversion of carbohydrates to fatty acids; conditions: rats on a low-fat, carbohydrate-rich diet; cited from earlier work
[4] = tested on: mice (type CD-1M (ICR) BR); assay: Feeding experiment in mice: whole body crude protein, crude fat, P/F quotient, feed intake, weight gain; type: in vivo; conditions: 21 days; for Body fat / Body protein / P/F quotient: mice
Protocol: 1. Determination of Whole Body Crude Protein • 1) Method for determining the content of crude protein in mice from the nitrogen content, modified according to Kjeldahl (Kjeldahl, J.: Z. anal. Chem. 22, 366-382. 1883). • 2) Principle • The experimental animals were slaughtered and after removing the gastrointestinal tract, the weight of the animals was determined by weighing. The experimental animals were then shock-frozen in liquid nitrogen and homogenized. The resultant samples were subjected to wet digestion. The acidic digest was made alkaline with sodium hydroxide solution. The ammonia released was removed by distillation and collected in a defined amount of sulfuric acid, the excess of which was titrated with sodium hydroxide solution. • 3) Reagents • 3.1) Potassium sulfate, analytical grade • 3.2) Catalyst: copper(II) oxide, CuO, analytical grade, or crystalline copper sulfate, CuSO4.5H2O, analytical grade, or mercury, or mercury oxide, HgO, analytical grade. • 3.3) Sulfuric acid; analytical grade, D 1.84 • 3.4) Pumice stone, granulated, washed with hydrochloric acid and ignited • 3.5) Zinc, analytical grade, granulated • 3.6) Sulfuric acid, 0.1 N; • 3.7) Sulfuric acid, 0.5 N • 3.8) Methyl red indicator: 300 mg of methyl red are dissolved in 100 ml of ethanol, from 94 to 96% strength (VN). • 3.9) Sodium hydroxide solution, analytical grade, 40% strength (WN) • 3.10) Sodium sulfide solution, analytical grade, saturated • 3.11) Sodium thiosulfate solution, 8% strength (WN), Na2S2O3.5H2O, analytical grade • 3.12) Sodium hydroxide solution, 0.1 N; • 3.13) Sodium hydroxide solution, 0.25 N • 4) Apparatus • Digestion apparatus and distillation apparatus according to Kjeldahl (see above); • 5) Digestion • 1 g of the sample was weighed out accurately to 1 mg and placed in the flask of the digestion apparatus. 10 g of potassium sulfate […], a suitable amount of the catalyst (3.2) (from 0.3 to 0.4 g of copper oxide or from 0.9 to 1.2 g of copper sulfate or one drop of mercury or from 0.6 to 0.7 g of mercury oxide), 25 ml of sulfuric acid (3.3) and a few grains of pumice (3.4) were added and the flask contents were mixed. The flask was first heated moderately, then, with shaking from time to time, heated up to carbonization of the substance and disappearance of the foam, and finally intensively up to the uniform boiling of the liquid. Superheating of the flask walls and deposition of organic parts onto the flask walls was avoided. As soon as the solution was clear and colorless (light green when a copper-containing catalyst is used), this was kept boiling for a further 1 hour; thereafter it was allowed to cool. • 6) Distillation • With continuous swirling, from 250 to 356 ml of water were added with care, in which case the sulfates should dissolve completely. The mixture was allowed to cool; then some zinc granules (3.5) were added. Between 10 ml and 25 ml of sulfuric acid (3.6) or (3.7), depending on the expected nitrogen content, and a few drops of methyl red indicator (3.8) were added to the distillation apparatus collection flask. The flask was connected to the condenser of the distillation apparatus and its outermost end was lowered at least 1 cm deep into the liquid of the collection flask. 100 ml of sodium hydroxide solution (3.9) were slowly charged via the stopcock funnel into the distillation flask. When a mercury catalyst is used, in addition, 10 ml of sodium sulfide solution (3.10) or 25 ml of sodium thiosulfate solution (3.11) were added to the distillation flask. The flask is heated in such a manner that, in 30 min, about 150 ml of the liquid had distilled off. After the expiry of this time, the neutral reaction of the overhead distillate was controlled using litmus paper. If the reaction was alkaline, the distillation was continued. […] During the distillation operation, the contents of the collection flask were swirled from time to time and its color was observed. […]

Mucor circinelloides = conditions: fungus Mucor circinelloides; cited from earlier work
ATP:citrate lyase = ATP:citrate lyase from Mucor circinelloides; cited from earlier work
[5] = animals fed with tartronic acid (0.25% and 0.75% of feed) vs control

Question: For O=C(O)C(O)C(=O)O [Tartronic acid, tartronic acid], which “inhibitory activity on enzyme” value [1] is on record?
Answer: direct inhibitory activity

Question: What about the “inhibitory activity on enzyme” value [2] of the same compound?
Answer: direct inhibitory activity

Question: And the “inhibitory activity on enzyme” value (malate enzyme)?
Answer: direct inhibitory activity

Question: What about the “inhibitory activity on enzyme” value (malate dehydrogenase) of the same compound?
Answer: direct inhibitory activity

Question: What about the “effect on conversion of carbohydrates to fatty acids” value [3] of the same compound?
Answer: inhibits the conversion of carbohydrates to fatty acids

Question: What about the Body fat ([4]; 0.25% by weight of the feed) of the same compound?
Answer: 20.25 % by weight of body weight

Question: And the Body protein ([4]; 0.25% by weight of the feed)?
Answer: 65.93 % by weight of body weight

Question: And the P/F quotient ([4]; 0.25% by weight of the feed)?
Answer: 3.53

Question: What about the Body fat ([4]; 0.75% by weight of the feed) of the same compound?
Answer: 20.65 % by weight of body weight

Question: And the Body protein ([4]; 0.75% by weight of the feed)?
Answer: 66.04 % by weight of body weight

Question: And the P/F quotient ([4]; 0.75% by weight of the feed)?
Answer: 3.28

Question: And the “P/F quotient, change” value [4, 5]?
Answer: increase in the P/F quotient

Question: And the “PPTW (percentage protein of total weight), change” value [4, 5]?
Answer: increase in the PPTW

Question: And the “in vivo inhibitory activity, effect on lipid metabolism” value (Mucor circinelloides)?
Answer: not sufficient to have a detectable effect on lipid metabolism

Question: What about the “inhibitory activity on enzyme” value (ATP:citrate lyase) of the same compound?
Answer: direct inhibitory activity
